PMC5342230, “ITC-derived binding affinity may be biased due to titrant (nano)-aggregation. Binding of halogenated benzotriazoles to the catalytic domain of human protein kinase CK2” (PLoS ONE, 2017)
≈ marks a conversion by molar mass, not a printed value. Where “and” joins values, the source holds several entries; their conditions need not be identical. Identical values can stand only once. Marks after values point to notes of the source that are not given here.

Columns and labels:
[1] = target: T1, catalytic subunit of human protein kinase CK2 (hCK2α) (Homo sapiens, UniProt P68400); test: Microscale Thermophoresis (MST), global fit of two independent binding sites; details: for Kd: global fit of 6 pseudo-titrations
T1 construct: made in house
T1 sequence (P68400 whole entry): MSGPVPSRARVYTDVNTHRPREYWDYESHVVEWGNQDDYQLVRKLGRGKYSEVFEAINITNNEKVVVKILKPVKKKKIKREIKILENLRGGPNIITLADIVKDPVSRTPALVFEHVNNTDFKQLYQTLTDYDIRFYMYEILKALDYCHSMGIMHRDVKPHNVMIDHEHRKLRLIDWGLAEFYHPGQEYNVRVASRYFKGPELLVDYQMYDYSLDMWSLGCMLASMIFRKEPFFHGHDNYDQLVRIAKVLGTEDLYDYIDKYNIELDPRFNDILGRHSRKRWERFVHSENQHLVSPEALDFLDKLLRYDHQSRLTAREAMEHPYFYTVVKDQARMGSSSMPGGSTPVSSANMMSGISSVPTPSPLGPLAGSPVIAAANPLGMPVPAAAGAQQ
Procedure: For MST experiments the protein sample additionally contained 5 mM β-mercaptoethanol to prevent sticking of protein to capillaries.
(§1) It should be stressed that the solvent composition of protein and ligand samples were always identical, so that the protein and ligand concentrations were the only variable factors.
The concentration of the labeled protein was kept constant at ~100 nM, while the ligand to protein concentration ratio was in the range of 0.01 to 10^5 nM. The samples were loaded into K002 Monolith™ NT.115 Standard Treated Capillaries, which after 10 min incubation time were analyzed using the Monolith NT.115 (NanoTemper Technologies). […] The numerical model was based on the cubic equation describing the concentration-dependent equilibrium of the apo form of the protein, free ligand, and their 1:1 and 1:2 complexes K1⋅K2⋅[L]^3+(K1+K1⋅K2⋅(2⋅P0-L0))⋅[L]^2+(1+K1⋅(P0-L0))⋅[L]=L0 (1) where P0 and L0 are the total concentrations of the protein and ligand, respectively; K1 and K2 are the […] for 1:1 and 1:2 complexes; and [L] is the concentration of the free ligand. The above equation can be resolved by roots against [L]
Concentrations of 1:1 and 1:2 complexes equal K1∙[P]∙[L] and K1∙K2∙[P]∙[L]^2, respectively. The model was implemented in Origin 9.0 package (www.originlab.com). Dissociation constants, K1 and K2, were estimated globally for a series of 6 MST pseudo-titration experiments, while contributions of three protein forms (i.e. apo, and 1:1 and 1:2 complexes) to the observed MST signal were fitted individually for each experiment (S1 Fig).

[2] = target: T1, catalytic subunit of human protein kinase CK2 (hCK2α); test: ITC (hCK2α titrated with the ligand), one type of binding sites; details: ligand as titrant, 25°C
Procedure: as §1
(§2) All ITC measurements were carried out at 25°C with the Nano ITC calorimeter (TA Instruments), using 250 rpm stirring and 1000 s delay between succeeding injections to the sample cell (950 μl). The first “technical” injection of a reduced volume (4–5 μl) was followed by 12 injections of 20 μl, however 16x15 μl or 10x25 μl schemes were occasionally used. The concentration of reagents varied depending on their affinities and experiment type. Thus 20–200 μM ligand solution was used as the titrant, but only 4–10 μM when placed in the sample cell. Accordingly, the sample cell was filled with 4–30 μM hCK2α solution, while 20–40 μM protein solution was placed in the syringe. For each ligand at least two titration experiments were done with different reagent concentrations, and occasionally with optimized injection volume. […] The resulting data were processed with the standard NanoAnalyze software package (version 3.5.0), assuming the model of one type of binding sites of the apparent stoichiometry close to 1:1. The automatically adjusted integration regions were used to minimize the impact of researcher’s arbitrary decision. The uncertainty of all determined values was estimated as the half-width of 67% confidence interval.

[3] = target: T1, catalytic subunit of human protein kinase CK2 (hCK2α); test: Reverse ITC (ligand titrated with hCK2α), one type of binding sites; details: protein as titrant, 25°C
Procedure: as §1, §2

[4] = target: T1, catalytic subunit of human protein kinase CK2 (hCK2α); test: Reverse ITC with MST-derived Kd (two types of binding sites, Kd constrained); details: for ΔG1 / ΔG2 / Kd: constrained based on the MST-derived binding affinities; for ΔH1 / ΔS1 / ΔH2 / ΔS2: reverse ITC, two-site model, Kd from MST; for ΔH1 / ΔS1: strong site; for ΔH2 / ΔS2: weak site
Procedure: All ITC measurements were carried out at 25°C with the Nano ITC calorimeter (TA Instruments), using 250 rpm stirring and 1000 s delay between succeeding injections to the sample cell (950 μl). The first “technical” injection of a reduced volume (4–5 μl) was followed by 12 injections of 20 μl, however 16x15 μl or 10x25 μl schemes were occasionally used. The concentration of reagents varied depending on their affinities and experiment type. Thus 20–200 μM ligand solution was used as the titrant, but only 4–10 μM when placed in the sample cell. Accordingly, the sample cell was filled with 4–30 μM hCK2α solution, while 20–40 μM protein solution was placed in the syringe. For each ligand at least two titration experiments were done with different reagent concentrations, and occasionally with optimized injection volume. […] The automatically adjusted integration regions were used to minimize the impact of researcher’s arbitrary decision. The uncertainty of all determined values was estimated as the half-width of 67% confidence interval.

[5] = target: T1, catalytic subunit of human protein kinase CK2 (hCK2α); test: Reverse ITC (ligand titrated with hCK2α), one type of binding sites; details: strong site
[6] = Dynamic light scattering (DLS/SLS) of ligand nano-aggregates; format: physicochemical; details: for formation of nano-aggregates (DLS autocorrelation function): 1 mM ligand, 25°C, buffer with 2% DMSO
Procedure: All DLS experiments were carried out at 25°C with the DynaPro NanoStar 192-DPN apparatus (Wyatt Technology) equipped with 661 nm laser. The autocorrelation function for the light scattered by 5-BrBt or TBBt buffered solution placed in Eppendorf disposable cuvettes (50–2000 μl) was measured at various solute concentrations in the range of 0.5 μs– 0.1 s, and further decomposed to the distribution of particle size (ranging from 0.18 nm to 2.5 μm) using Dynamics software (Wyatt Technology, ver. 7.0.2.7). Solutions with 2% (v/v) DMSO content were prepared in 25 mM Tris-HCl (pH 8, 0.5 M NaCl) filtered with 0.22 μm pore size syringe filter. All samples were centrifuged (9000 g) for 3 minutes immediately before the experiment. For each sample a series of at least 30 repetitions, 10 s each, has been collected, and those with abnormally high SOS function and/or with highly fluctuating SLS signal were removed from the analysis. All remaining data have been averaged to obtain the autocorrelation function (ACF) of a reasonable quality. This procedure was found indispensable for diluted TBBt solutions, in which large aggregates have rarely scattered light crossing the laser beam. Consequently, extreme fluctuations of ACF precluded direct analysis of the time-evolution of TBBt aggregates. However, the raw SLS signal was found applicable to estimate the rate of aggregate disintegration.

[7] = UV-VIS spectroscopy, deviation from Lambert-Beer law (ligand aggregation); format: physicochemical
Procedure: The absorption spectra (200–500 nm) were collected at 25°C using Varian Cary 50 UV-VIS spectrophotometer equipped with 1 cm quartz cells. The initial buffer solution was manually titrated with the 851 μM TBBt solution to record spectra for increasing solute concentration. For each sample UV-VIS spectrum was collected four times, every 20 s including 15 s acquisition time, starting 5 s after solute dilution. The changes in the absorption spectrum of 40 μM TBBt sample, prepared just before the experiment, were additionally tracked for an hour to follow possible disintegration of soluble aggregates.

[8] = design: method as in http://www.sigmaaldrich.com/catalog/product/sigma/t0826; details: ref http://www.sigmaaldrich.com/catalog/product/sigma/t0826; cited from earlier work
[9] = strong site, read-out: Kd1 (strong binding site)
[10] = weak site, read-out: Kd2 (weak binding site)

Compound	ΔG1 ([1]; strong site) [kcal/mol]	Kd [1, 9] [nM]	ΔG2 ([1]; weak site) [kcal/mol]	Kd [1, 10] [nM]	Kd [2] [nM]	ΔG [2] [kcal/mol]	ΔH [2] [kcal/mol]	ΔS [2] [J/mol/K]	Kd [3] [nM]	ΔG [3] [kcal/mol]	ΔH [3] [kcal/mol]	ΔS [3] [J/mol/K]	ΔG1 [4]	ΔG2 [4]	Kd ([4]; read-out: Kd1) [nM]	Kd ([4]; read-out: Kd2) [nM]	ΔH1 [4] [kcal/mol]	ΔS1 [4] [J/mol/K]	ΔH2 [4] [kcal/mol]	ΔS2 [4] [J/mol/K]	other results
Brc1cc2[nH]nnc2c(Br)c1Br [4,5,6-Br3Bt, 4,5,6-tribromobenzotriazole]	-9.66 ± 0.17	83 ± 29	-7.29 ± 0.17	4600 ± 1400	990 ± 270	-8.2 ± 0.14	-8.37 ± 0.48	-2 ± 5	42 ± 17	-10.1 ± 0.19	-9.56 ± 0.24	9 ± 4	-40.4 ^x kJ/mol	-30.5 ^x kJ/mol	83	4600	-10.5 ± 0.48	-12 ± 9	0.48 ± 2.2	109 ± 31	entropic contribution to binding [5]: favorable entropic contribution
Brc1cc2nn[nH]c2cc1Br [5,6-Br2Bt, 5,6-dibromobenzotriazole]	-9.68 ± 0.14	81 ± 22	-7.31 ± 0.072	4400 ± 500	1170 ± 270	-8.1 ± 0.12	-15.1 ± 0.48	-97 ± 8	46 ± 10	-10 ± 0.12	-17 ± 0.48	-98 ± 6	-40.5 ^x kJ/mol	-30.6 ^x kJ/mol	81	4400	-18.6 ± 3.11	-126 ± 43	2.63 ± 8.13	140 ± 114	–
Brc1ccc2nn[nH]c2c1 [5-BrBt]	-9.01 ± 0.072	246 ± 36	-7.1 ± 0.096	6300 ± 1000	310 ± 89	-8.87 ± 0.14	-16.3 ± 0.72	-102 ± 9	294 ± 73	-8.91 ± 0.12	-16.7 ± 0.72	-110 ± 10	-37.7 ^x kJ/mol	-29.7 ^x kJ/mol	246	6300	-17.4 ± 1.2	-118 ± 15	1.7 ± 5.5	123 ± 77	formation of nano-aggregates (DLS autocorrelation function) [6]: no such effect was observed; plot of concentration versus absorbance (Lambert-Beer law) ([7]; control experiment): remained linear
Brc1c(Br)c(Br)c2[nH]nnc2c1Br [TBBt, tetrabromobenzotriazole]	–	–	–	–	–	–	–	–	–	–	–	–	–	–	–	–	–	–	–	–	formation of nano-aggregates (DLS autocorrelation function) [6]: forms nano-aggregates; radius of nano-aggregates ([6]; DLS, 1 mM down to 20 μM): ~ 100 nm and 100 nm; τ, decay of the aggregate population (raw SLS signal) ([6]; after rapid dilution of 500 μM sample): 460 ± 40 s; τ, increase of population of the monomeric form (absorption at 291 nm) ([7]; 40 μM solution, tracked for an hour): 670 ± 40 s; upper limit of ligand concentration at which monomeric form predominates ([7]; UV absorbance, deviation from Lambert-Beer law): 20 to 30 µM; solubility in pure DMSO [8]: 65 mM (≈ 28.3 mg/mL)
